In one data set the test system is RAW 264.7 cells. The data set can be described thus: NO production inhibition in LPS-induced RAW 264.7 cells (Griess reagent method). Type of data set: cell-based. The following applies: LPS-induced (10 μg/mL) RAW 264.7 cells, 24 h, mean ± standard deviation (n = 3). The method, then:
RAW 264.7 cells were cultured as above, then divided into blank control, LPS-induced (10 μg/mL, model), and sample-treated groups. After 24 h, supernatants were centrifuged (12,000 r/min, 5 min) and collected. NO production was assessed using the standard Griess reagent method (Fan et al. [2023]).
Inhibition rate (%) = [(NOmodel – NOsample)/(NOmodel – NOblank)] × 100%.
A general note: Nitrite, measured by Griess reagent, commonly stands in for NO production.

The test system of another data set is RAW264.7 macrophages. The data set can be described thus: Cell viability assay (CCK-8) in RAW264.7 macrophages. Type of data set: cell-based. The settings on record: RAW 264.7 cells, 24 h, tested at 20, 40, 80 μmol/L. The method, then: RAW264.7 macrophages were seeded in 96-well plates (5 × 10^4 cells/well) and cultured at 37 °C with 5% CO₂ for 24 h. After adhesion, test samples (20, 40, 80 μmol/L) or medium (blank) were added and incubated for 24 h. Subsequently, 10 μL of CCK-8 solution was added, and after 2 h of incubation, the absorbance was measured at 450 nm.
Cell viability (%) = (ODsample/ODblank) × 100%

SMILES strings stand for the structures.

As to `C[C@@H]1OC(=O)c2c1ccc1c2COC1=O` [Compound 4, 10-normarasmiellactone R], the IC50 (commonly the concentration at which inhibition is half-maximal) with RAW 264.7 cells (Mus musculus, RAW264.7) is 15.5 ± 1.4 µM. This compound also registered a Cytotoxicity in the data set with RAW264.7 macrophages greater than 80 µmol/L.
In the data set on RAW 264.7 cells (Mus musculus, RAW264.7), `COC(=O)C(C)(C)c1ccc(C(=O)O)c2c1C(=O)OC2O` (racemic) [Compound 8, (±)-Marasmielolic acid D] showed a 50% inhibitory concentration (IC50) of 50.8 ± 3.4 µM. The same compound showed a Cytotoxicity in the data set on RAW264.7 macrophages greater than 80 µmol/L.
In the same order, the values of `CC(C)(CC(=O)O)c1ccc(C(=O)O)c2c1C(=O)OC2` [Compound 6, Marasmielolic acid B] are 65.4 ± 4.6 µM and greater than 80 µmol/L.
In the same order, the values of `COC(=O)c1c(C(=O)O)ccc2c1C(=O)OC2(C)C` [Compound 9, Marasmielolic acid E] are greater than 100 µM and greater than 80 µmol/L.
In turn, `C[C@]1(CO)OC(=O)c2c1ccc1c2COC1=O` [Compound 2, Marasmiellactone S] gave a concentration for half-maximal inhibition (IC50) in the data set with RAW 264.7 cells (Mus musculus, RAW264.7) of 16.7 ± 1.6 µM. Moreover, the Cytotoxicity with RAW264.7 macrophages is greater than 80 µmol/L.
Turning to `N=C(N)NN` [Aminoguanidine, aminoguanidine, reference compound], the IC50 in the data set with RAW 264.7 cells was 12.5 ± 1.8 µM. The Cytotoxicity with RAW264.7 macrophages is greater than 80 µmol/L.
As to `CC(=O)OC[C@@]1(C)OC(=O)c2c1ccc1c2COC1=O` [Compound 3, 10-O-acetylmarasmiellactone S], the IC50 in the data set with RAW 264.7 cells (Mus musculus, RAW264.7) stood at 22.1 ± 2.6 µM. In the data set with RAW264.7 macrophages, the Cytotoxicity is greater than 80 µmol/L.
The like results for `CC(C)(C(=O)O)c1ccc(C(=O)O)c2c1C(=O)OC2` [Compound 7, normarasmielolic acid B] were, in that order, 69.2 ± 3.1 µM and greater than 80 µmol/L.
In the data set on RAW 264.7 cells (Mus musculus, RAW264.7), `CC1(C)OC(=O)c2c1ccc1c2COC1=O` [Compound 1, Marasmiellactone R] returned an IC50 of 18.2 ± 1.9 µM. Besides, the Cytotoxicity in the data set with RAW264.7 macrophages was greater than 80 µmol/L.
The like results for `COC(=O)c1c(C(=O)O)ccc2c1C(=O)C(O)=CC2(C)C` [Compound 10, Marasmielolic acid F] were, in that order, greater than 100 µM and greater than 80 µmol/L.
In the data set with RAW 264.7 cells (Mus musculus, RAW264.7), `CC(C)(CC(=O)O)c1ccc(C(=O)O)c2c1C(=O)NC2=O` [Compound 5, Marasmielolic acid A] registered an IC50 of 53.5 ± 3.9 µM. For the same compound, the Cytotoxicity with RAW264.7 macrophages is greater than 80 µmol/L.
